Measurements taken from patent US12392768B2, “Methods for determining blood gas or metabolic parameters” (RADIOMETER MEDICAL APS, priority 2019, dated 2025).
Entries after “also recorded” stand apart in the source; their conditions may differ. Counter-ions that a name gives are not always drawn.

Experiments:
[1] = test system: platelets; test: Manual count of single platelets and platelet aggregates in heparinized blood with anti-platelet drug candidates (Example 1); details: heparinized venous blood; for platelet count compared to LiHep and PicoSAM controls: L-Arginine 600 μM and 6 mM, dipyridamole 10 and 100 μM; for count of single platelets compared to EDTA reference / number of platelet aggregates compared to EDTA control: two concentration levels per drug
Method: Each experiment was conducted on a separate day with blood from one voluntary donor testing one anti-platelet drug candidate. For each experiment PICO70 syringe samplers (Radiometer Medical ApS) were prepared just before sample drawing. For “LiHep” (Liquid Heparin) conditions, PICO70 samplers were emptied of the gold ball and heparin brick and 15 μl of aqueous liquid balanced heparin comprising heparin lithium (Celsus Laboratories) and heparin sodium (Celsus Laboratories) (final heparin conc. 60 IU/mL blood) and 15 μl of the solvent of the tested drug were added. For “PicoSAM” conditions, unmodified PICO70 samplers (with gold ball and heparin brick) were used and 15 μl of the solvent of the respective tested drug was added. For “LiHep xxx drug” conditions, PICO70 samplers were emptied as described for LiHep and 15 μl of liquid balanced heparin (final heparin conc. 60 IU/mL blood) and 15 μl of the dissolved tested drug were added. For “PicoSAM xxx drug” conditions, unmodified PICO70 samplers (with gold ball and heparin brick) were used and 15 μl of the dissolved tested drug was added. […] 600 μM and 6 mM) and dipyridamole (Sigma, D9766; dissolved in 1:10 or 1:100 DMSO in saline, final conc. 10 and 100 μM). An EDTA tube (BD Vacutainer with spray-coated K2EDTA, 10 ml) and duplicate samples of all conditions of PICO70 syringe samplers were filled by drawing venous blood via a butterfly needle using a sealed VTC (vented tip cap) to fill the otherwise self-aspirating PICO70 samplers with 1.5 mL venous whole blood. Samplers were inverted 8 times immediately after drawing to insure proper anti-coagulation of the samples. The blood samples were mixed gently by hand (samplers without gold ball) or on a SAM mixer (Radiometer Medical ApS) for 15 minutes after drawing the sample. Mixed samples were fixed immediately with 10% formalin solution (1:1 dilution of blood in formalin) for at least 10 minutes and further diluted 1:10 in platelet dilution solution to hemolyze red blood cells (RBCs) to assessed manual platelet count using a hemocytometer. […] Single platelet counts were adjusted for dilution with liquid heparin and or dissolved drug solution to calculate single platelet concentrations.

[2] = test system: platelets; test: ABX platelet count, automated hematology analyzer (Example 4); assay type: cell-based; details: for Mean ABX PLT count: Iloprost 1 μM in PicoSAM, EDTA reference
Method: Blood samples drawn and mixed after 15 minutes as described above were assessed with an automated hematology analyzer (Horiba, ABX Pentra 60C+) (ABX) for complete blood count (CBC) with 5-diff including WBC concentration, platelet concentration, mean platelet volume (MPV), concentrations and fractions of neutrophils, lymphocytes, monocytes, eosinophils and basophils, RBC concentration, hematocrit, hemoglobin concentration, RBC descriptive parameters (MCV, MCH, MCHC, RDW). Samples were prepared from several donors. Measured platelet concentration was used to compare to manually assessed platelet concentrations of iloprost heparin samples (in PICO70 samplers) and EDTA anti-coagulated samples. For control, EDTA samples with no platelet aggregates are used as reference measurement for the measured automated ABX platelet concentration.

[3] = test system: platelets; test: Manual platelet count versus EDTA reference (Example 4); assay type: cell-based; details: for Mean Manual PLT count: Iloprost 1 μM in PicoSAM, EDTA reference
Method: For each experiment PICO70 syringe samplers (Radiometer Medical ApS) were prepared just before sample drawing. For “LiHep” (Liquid Heparin) conditions, PICO70 samplers were emptied of the gold ball and heparin brick and 15 μl of aqueous liquid balanced heparin comprising heparin lithium (Celsus Laboratories) and heparin sodium (Celsus Laboratories) (final heparin conc. 60 IU/mL blood) and 15 μl of the solvent of the tested drug were added. For “PicoSAM” conditions, unmodified PICO70 samplers (with gold ball and heparin brick) were used and 15 μl of the solvent of the respective tested drug was added. For “LiHep xxx drug” conditions, PICO70 samplers were emptied as described for LiHep and 15 μl of liquid balanced heparin (final heparin conc. 60 IU/mL blood) and 15 μl of the dissolved tested drug were added. For “PicoSAM xxx drug” conditions, unmodified PICO70 samplers (with gold ball and heparin brick) were used and 15 μl of the dissolved tested drug was added. […] An EDTA tube (BD Vacutainer with spray-coated K2EDTA, 10 ml) and duplicate samples of all conditions of PICO70 syringe samplers were filled by drawing venous blood via a butterfly needle using a sealed VTC (vented tip cap) to fill the otherwise self-aspirating PICO70 samplers with 1.5 mL venous whole blood. Samplers were inverted 8 times immediately after drawing to insure proper anti-coagulation of the samples. The blood samples were mixed gently by hand (samplers without gold ball) or on a SAM mixer (Radiometer Medical ApS) for 15 minutes after drawing the sample. Mixed samples were fixed immediately with 10% formalin solution (1:1 dilution of blood in formalin) for at least 10 minutes and further diluted 1:10 in platelet dilution solution to hemolyze red blood cells (RBCs) to assessed manual platelet count using a hemocytometer. […] Single platelet counts were adjusted for dilution with liquid heparin and or dissolved drug solution to calculate single platelet concentrations.

[4] = test system: platelets; test: Microscopic wet mount images of fixed blood samples, platelet aggregation (Example 2); assay type: cell-based; details: 40x phase contrast, eptifibatide 20 μM added to heparin
Source text: Venous blood samples drawn, mixed and fixed with 10% formalin solution, as described before in Example 1 were used to prepare wet mounts on a glass slide and covered with a glass coverslip. Wet mount samples of fixed blood cells were then imaged with a Leica 750 microscope using a 40× phase-contrast air objective.

[5] = test system: platelets and WBCs; test: Wet mount images of stained and hemolyzed blood samples (Example 3); assay type: cell-based; details: for WBC aggregates / platelet satellinism (platelets binding to WBCs) / platelets (single or aggregated) in stained wet mounts: PicoSAM samples, tirofiban 1 μM, eptifibatide 20 μM, iloprost 100 nM, EDTA anti-coagulated blood
Method: Venous blood samples were drawn and mixed as described before in Example 1 and used to prepare stained wet mounts images. Blood samples were mixed with a staining and hemolyzing agent (methylene blue and deoxycholic acid, respectively) and incubated at 47° C. in a water bath for 30 seconds. Stained and hemolyzed blood samples were then prepared in wet mount samples on a glass slide and covered with a glass coverslip. Images of stained samples were then acquired with a Leica 750 microscope using a 40× air objective in bright field mode. An image processing software (FIJI, ImageJ) was used to select regions of interest (ROIs) of representative stained WBCs from the images.

## OCCN(CCO)c1nc(N2CCCCC2)c2nc(N(CCO)CCO)nc(N3CCCCC3)c2n1 [Dipyridamole, dipyridamole]
[1]
  platelet count compared to LiHep and PicoSAM controls: slightly higher

## O=C(O)CN(CCN(CC(=O)O)CC(=O)O)CC(=O)O [EDTA, Ethylenediaminetetraacetic acid]
[2]; Donor ID 4
  Mean ABX PLT count: 200 PLT/nl
[2]; Donor ID 5
  Mean ABX PLT count: 259 PLT/nl
[2]; Donor ID 6
  Mean ABX PLT count: 185 PLT/nl
[2]; Donor ID 7
  Mean ABX PLT count: 240 PLT/nl
[2]; Donor ID 8
  Mean ABX PLT count: 202 PLT/nl
[2]; Donor ID 9
  Mean ABX PLT count: 236 PLT/nl
[3]; Donor ID 4
  Mean Manual PLT count: 200 PLT/nl
[3]; Donor ID 5
  Mean Manual PLT count: 242 PLT/nl
[3]; Donor ID 6
  Mean Manual PLT count: 189 PLT/nl
[3]; Donor ID 7
  Mean Manual PLT count: 249 PLT/nl
[3]; Donor ID 8
  Mean Manual PLT count: 207 PLT/nl
[3]; Donor ID 9
  Mean Manual PLT count: 255 PLT/nl
[4]
  platelet aggregates in microscopic images of blood samples: prevents platelet activation and maintains single platelets; also recorded: cannot be seen
[5]
  WBC aggregates: same results
  platelet satellinism (platelets binding to WBCs): same results
  platelets (single or aggregated) in stained wet mounts: same results

## CC#CCC(C)[C@H](O)/C=C/[C@@H]1[C@H]2C/C(=C/CCCC(=O)O)C[C@H]2C[C@H]1O (stereo partly drawn) [Iloprost, iloprost]
[2]; Donor ID 4
  Mean ABX PLT count: 204 PLT/nl
[2]; Donor ID 5
  Mean ABX PLT count: 253 PLT/nl
[2]; Donor ID 6
  Mean ABX PLT count: 173 PLT/nl
[2]; Donor ID 7
  Mean ABX PLT count: 233 PLT/nl
[2]; Donor ID 8
  Mean ABX PLT count: 191 PLT/nl
[2]; Donor ID 9
  Mean ABX PLT count: 216 PLT/nl
[2]; PicoSAM 1 μM iloprost, seven donors
  average performance of platelet count compared to EDTA samples as reference, ABX platelet count: 97%
[3]; Donor ID 4
  Mean Manual PLT count: 198 PLT/nl
[3]; Donor ID 5
  Mean Manual PLT count: 242 PLT/nl
[3]; Donor ID 6
  Mean Manual PLT count: 154 PLT/nl
[3]; Donor ID 7
  Mean Manual PLT count: 247 PLT/nl
[3]; Donor ID 8
  Mean Manual PLT count: 203 PLT/nl
[3]; Donor ID 9
  Mean Manual PLT count: 202 PLT/nl
[3]; PicoSAM 100 nM iloprost, one donor
  average performance of platelet count compared to EDTA samples as reference, manual count: 97%
[3]; PicoSAM 1 μM iloprost, eight donors
  average performance of platelet count compared to EDTA samples as reference, manual count: 93%
[5]
  WBC aggregation in the blood sample: very low WBC aggregation
  WBC aggregates: not platelet satellinism or WBC aggregates
  platelet satellinism (platelets binding to WBCs): not platelet satellinism
  platelets (single or aggregated) in stained wet mounts: single platelets
[1]
  count of single platelets compared to EDTA reference: comparable
  number of platelet aggregates compared to EDTA control: no or few

## N=C(N)NCCC[C@H](N)C(=O)O [L-Arginine]
[1]
  count of single platelets compared to EDTA reference: decreased
  number of platelet aggregates compared to EDTA control: higher
  platelet count compared to LiHep and PicoSAM controls: slightly higher

## Clc1ccccc1CN1CCc2sccc2C1 [Ticlopidine, ticlopidine hydrochloride]
[1]
  count of single platelets compared to EDTA reference: similar

## CCCCS(=O)(=O)N[C@@H](Cc1ccc(OCCCCC2CCNCC2)cc1)C(=O)O [Tirofiban, tirofiban hydrochloride monohydrate]
[5]
  WBC aggregates: WBC aggregates were also observed
  platelet satellinism (platelets binding to WBCs): platelet satellinism
  platelets (single or aggregated) in stained wet mounts: single platelets
[1]
  count of single platelets compared to EDTA reference: comparable
  number of platelet aggregates compared to EDTA control: no or few

## Heparin
[4]
  platelet aggregates in microscopic images of blood samples: allows or even potentiates platelet aggregation; also recorded: showed platelet aggregates

## eptifibatide acetate
[4]
  platelet aggregates in microscopic images of blood samples: cannot be observed; also recorded: cannot be seen
[5]
  WBC aggregates: WBC aggregates were also observed
  platelet satellinism (platelets binding to WBCs): platelet satellinism
  platelets (single or aggregated) in stained wet mounts: single platelets
[1]
  count of single platelets compared to EDTA reference: comparable
  number of platelet aggregates compared to EDTA control: no or few
